In PubChem BioAssay AID1963869 (Molecular Pharmacology Branch, DTP, NCI, 2024):

Test system: KRAS patient-derived spheroids with HUVEC/MSC, viability
Assay: Anticancer human tumor 323965-272-R-J2-PDC patient-derived pancreatic carcinoma cell line growth inhibition [KRAS2]
Conditions: for IC50: curve of first compound; for viability, T/C: stronger effect = lower value
In short: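 KRAS-mutant tumor cells were grown as spheroids with HUVEC endothelial cells and human MSCs as stroma. Targeted agents were tested alone and with KRAS pathway inhibitors. Doses started at or near clinical Cmax, or 10 microM, descending half-log.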

[1] = second compound 0.1 µM, first compound 0.000316 µM
[2] = second compound 0.1 µM, first compound 0.001 µM
[3] = second compound 0.1 µM, first compound 0.00316 µM
[4] = second compound 0.1 µM, first compound 0.01 µM
[5] = second compound 0.1 µM, first compound 0.0316 µM
[6] = second compound 0.1 µM, first compound 0.1 µM
[7] = second compound 0.316 µM, first compound 0.000316 µM
[8] = second compound 0.316 µM, first compound 0.001 µM
[9] = second compound 0.316 µM, first compound 0.00316 µM
[10] = second compound 0.316 µM, first compound 0.01 µM
[11] = second compound 0.316 µM, first compound 0.0316 µM
[12] = second compound 0.316 µM, first compound 0.1 µM
[13] = second compound 1 µM, first compound 0.000316 µM
[14] = second compound 1 µM, first compound 0.001 µM
[15] = second compound 1 µM, first compound 0.00316 µM
[16] = second compound 1 µM, first compound 0.01 µM
[17] = second compound 1 µM, first compound 0.0316 µM
[18] = second compound 1 µM, first compound 0.1 µM
[19] = second compound 3.16 µM, first compound 0.000316 µM
[20] = second compound 3.16 µM, first compound 0.001 µM
[21] = second compound 3.16 µM, first compound 0.00316 µM
[22] = second compound 3.16 µM, first compound 0.01 µM
[23] = second compound 3.16 µM, first compound 0.0316 µM
[24] = second compound 3.16 µM, first compound 0.1 µM
[25] = second compound 10 µM, first compound 0.000316 µM
[26] = second compound 10 µM, first compound 0.001 µM
[27] = second compound 10 µM, first compound 0.00316 µM
[28] = second compound 10 µM, first compound 0.01 µM
[29] = second compound 10 µM, first compound 0.0316 µM
[30] = second compound 10 µM, first compound 0.1 µM
[31] = second compound 0.1 µM, first compound 0.316 µM
[32] = second compound 0.1 µM, first compound 1 µM
[33] = second compound 0.1 µM, first compound 3.16 µM
[34] = second compound 0.1 µM, first compound 10 µM
[35] = second compound 0.316 µM, first compound 0.316 µM
[36] = second compound 0.316 µM, first compound 1 µM
[37] = second compound 0.316 µM, first compound 3.16 µM
[38] = second compound 0.316 µM, first compound 10 µM
[39] = second compound 1 µM, first compound 0.316 µM
[40] = second compound 1 µM, first compound 1 µM
[41] = second compound 1 µM, first compound 3.16 µM
[42] = second compound 1 µM, first compound 10 µM
[43] = second compound 3.16 µM, first compound 0.316 µM
[44] = second compound 3.16 µM, first compound 1 µM
[45] = second compound 3.16 µM, first compound 3.16 µM
[46] = second compound 3.16 µM, first compound 10 µM
[47] = second compound 10 µM, first compound 0.316 µM
[48] = second compound 10 µM, first compound 1 µM
[49] = second compound 10 µM, first compound 3.16 µM
[50] = second compound 10 µM, first compound 10 µM
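Note: spheroids exposed to agents for 7 days.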
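Throughout, for viability, T/C: 100% = DMSO vehicle control viability.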

SMILES: CC(C)n1nc(-c2ccc3oc(N)nc3c2)c2c(N)ncnc21 + C=CC(=O)N1CCN(c2nc(=O)n(-c3c(C)ccnc3C(C)C)c3nc(-c4c(O)cccc4F)c(F)cc23)C(C)C1
- IC50 (second compound 0.1 µM): 0.446 nM
- IC50 (second compound 0.316 µM): 0.394 nM
- IC50 (second compound 1 µM): 0.514 nM
- IC50 (second compound 3.16 µM): 0.381 nM
- IC50 (second compound 10 µM): < 0.316 nM
- viability, T/C [1]: 53.7%
- viability, T/C [2]: 41.4%
- viability, T/C [3]: 28.3%
- viability, T/C [4]: 19.1%
- viability, T/C [5]: 15.9%
- viability, T/C [6]: 12.3%
- viability, T/C [7]: 53.2%
- viability, T/C [8]: 37.8%
- viability, T/C [9]: 30.5%
- viability, T/C [10]: 22.1%
- viability, T/C [11]: 14.8%
- viability, T/C [12]: 12.5%
- viability, T/C [13]: 56.9%
- viability, T/C [14]: 41.1%
- viability, T/C [15]: 28.6%
- viability, T/C [16]: 19.3%
- viability, T/C [17]: 15.6%
- viability, T/C [18]: 13.3%
- viability, T/C [19]: 51.6%
- viability, T/C [20]: 41.9%
- viability, T/C [21]: 29%
- viability, T/C [22]: 17.5%
- viability, T/C [23]: 13.7%
- viability, T/C [24]: 12.3%
- viability, T/C [25]: 48.8%
- viability, T/C [26]: 36.3%
- viability, T/C [27]: 24.1%
- viability, T/C [28]: 19.4%
- viability, T/C [29]: 12.4%
- viability, T/C [30]: 12.7%

SMILES: CC1(C)CCC(CN2CCN(c3ccc(C(=O)NS(=O)(=O)c4ccc(NCC5CCOCC5)c([N+](=O)[O-])c4)c(Oc4cnc5[nH]ccc5c4)c3)CC2)=C(c2ccc(Cl)cc2)C1 + C=CC(=O)N1CCN(c2nc(=O)n(-c3c(C)ccnc3C(C)C)c3nc(-c4c(O)cccc4F)c(F)cc23)C(C)C1
- IC50 (second compound 0.1 µM): 1100 nM
- IC50 (second compound 0.316 µM): 1320 nM
- IC50 (second compound 1 µM): 1260 nM
- IC50 (second compound 3.16 µM): 1210 nM
- IC50 (second compound 10 µM): 81.8 nM
- viability, T/C [5]: 59.2%
- viability, T/C [6]: 59.6%
- viability, T/C [31]: 63.3%
- viability, T/C [32]: 52.7%
- viability, T/C [33]: 17%
- viability, T/C [34]: 4.37%
- viability, T/C [11]: 64.6%
- viability, T/C [12]: 58.1%
- viability, T/C [35]: 56.3%
- viability, T/C [36]: 60.4%
- viability, T/C [37]: 18.8%
- viability, T/C [38]: 5.39%
- viability, T/C [17]: 61.1%
- viability, T/C [18]: 61.9%
- viability, T/C [39]: 60.3%
- viability, T/C [40]: 59.5%
- viability, T/C [41]: 12%
- viability, T/C [42]: 2.97%
- viability, T/C [23]: 62%
- viability, T/C [24]: 62.3%
- viability, T/C [43]: 57.8%
- viability, T/C [44]: 56.9%
- viability, T/C [45]: 15.8%
- viability, T/C [46]: 5.2%
- viability, T/C [29]: 61%
- viability, T/C [30]: 37.6%
- viability, T/C [47]: 43.4%
- viability, T/C [48]: 36.3%
- viability, T/C [49]: 15.8%
- viability, T/C [50]: 2.88%

SMILES: COc1cc2nccc(Oc3ccc(NC(=O)C4(C(=O)Nc5ccc(F)cc5)CC4)cc3)c2cc1OC + C=CC(=O)N1CCN(c2nc(=O)n(-c3c(C)ccnc3C(C)C)c3nc(-c4c(O)cccc4F)c(F)cc23)C(C)C1
- IC50 (second compound 0.1 µM): > 10000 nM
- IC50 (second compound 0.316 µM): > 10000 nM
- IC50 (second compound 1 µM): > 10000 nM
- IC50 (second compound 3.16 µM): > 10000 nM
- IC50 (second compound 10 µM): 1190 nM
- viability, T/C [5]: 54.7%
- viability, T/C [6]: 56%
- viability, T/C [31]: 58.8%
- viability, T/C [32]: 62.6%
- viability, T/C [33]: 64.2%
- viability, T/C [34]: 57.8%
- viability, T/C [11]: 52.8%
- viability, T/C [12]: 55.1%
- viability, T/C [35]: 58.1%
- viability, T/C [36]: 61.8%
- viability, T/C [37]: 62.5%
- viability, T/C [38]: 59.8%
- viability, T/C [17]: 54.5%
- viability, T/C [18]: 52.3%
- viability, T/C [39]: 59.9%
- viability, T/C [40]: 61.7%
- viability, T/C [41]: 63.8%
- viability, T/C [42]: 61.5%
- viability, T/C [23]: 57.1%
- viability, T/C [24]: 56.9%
- viability, T/C [43]: 56.2%
- viability, T/C [44]: 61.2%
- viability, T/C [45]: 58.6%
- viability, T/C [46]: 55.6%
- viability, T/C [29]: 47.6%
- viability, T/C [30]: 54.2%
- viability, T/C [47]: 45.5%
- viability, T/C [48]: 61.9%
- viability, T/C [49]: 29.4%
- viability, T/C [50]: 44.2%

SMILES: Cn1ncnc1[C@H]1c2n[nH]c(=O)c3cc(F)cc(c23)N[C@@H]1c1ccc(F)cc1 + C=CC(=O)N1CCN(c2nc(=O)n(-c3c(C)ccnc3C(C)C)c3nc(-c4c(O)cccc4F)c(F)cc23)C(C)C1
- IC50 (second compound 0.1 µM): > 100 nM
- IC50 (second compound 0.316 µM): > 100 nM
- IC50 (second compound 1 µM): > 100 nM
- IC50 (second compound 3.16 µM): > 100 nM
- IC50 (second compound 10 µM): 23.7 nM
- viability, T/C [1]: 59.7%
- viability, T/C [2]: 65.8%
- viability, T/C [3]: 58.8%
- viability, T/C [4]: 57.8%
- viability, T/C [5]: 58.9%
- viability, T/C [6]: 55.7%
- viability, T/C [7]: 63%
- viability, T/C [8]: 63.2%
- viability, T/C [9]: 61.2%
- viability, T/C [10]: 55%
- viability, T/C [11]: 64%
- viability, T/C [12]: 57.4%
- viability, T/C [13]: 72.5%
- viability, T/C [14]: 64.2%
- viability, T/C [15]: 68.3%
- viability, T/C [16]: 58.7%
- viability, T/C [17]: 63.9%
- viability, T/C [18]: 57%
- viability, T/C [19]: 63.6%
- viability, T/C [20]: 65.6%
- viability, T/C [21]: 63.5%
- viability, T/C [22]: 64.7%
- viability, T/C [23]: 67.3%
- viability, T/C [24]: 54.6%
- viability, T/C [25]: 58.8%
- viability, T/C [26]: 62.7%
- viability, T/C [27]: 57.4%
- viability, T/C [28]: 50.4%
- viability, T/C [29]: 50.9%
- viability, T/C [30]: 41.2%
